Assay results taken from the supplement of paper PMC10307832.

What was measured:
Experiment in all cases: relative viability (nuclei count vs DMSO), 5 days (fraction); higher = more cells survive
Bortezomib + Linsitinib = compound: CC(C)C[C@H](NC(=O)[C@H](Cc1ccccc1)NC(=O)c1cnccn1)B(O)O [Bortezomib] + C[C@]1(O)C[C@@H](c2nc(-c3ccc4ccc(-c5ccccc5)nc4c3)c3c(N)nccn32)C1 [Linsitinib] (partner 1 µM)
Summary of the method: (§1)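 Medians of duplicate plates are given as relative viability. That measure is the nuclei count in treated wells divided by the count in vehicle wells. Counts were taken on 4× images of lung cancer cell lines in 1536-well plates, 5 days after pin-tool dosing the day after seeding with one drug alone or a fixed anchor-drug dose plus five library-drug doses (not always all listed) in √10 steps.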

[1] = compound: CC1=CC(=NN1)NC2=CC(=NC(=N2)/C=C/C3=CC=CC=C3)N4CCN(CC4)C + C[C@@H](Oc1cc(-c2cnn(C3CCNCC3)c2)cnc1N)c1c(Cl)ccc(F)c1Cl [Crizotinib] (partner 1 µM)
Summary of the method: as §1

[2] = compound: CC1=CC(=NN1)NC2=CC(=NC(=N2)/C=C/C3=CC=CC=C3)N4CCN(CC4)C + Nc1nc2[nH]cc(CCc3ccc(C(=O)N[C@@H](CCC(=O)O)C(=O)O)cc3)c2c(=O)[nH]1 [Pemetrexed] (partner 0.2 µM)
Summary of the method: as §1

Obatoclax + Tozasertib = compound: COC1=CC(c2cc3ccccc3[nH]2)=N/C1=C\c1[nH]c(C)cc1C [Obatoclax] + Cc1cc(Nc2cc(N3CCN(C)CC3)nc(Sc3ccc(NC(=O)C4CC4)cc3)n2)n[nH]1 [Tozasertib] (partner 0.1 µM)
Summary of the method: as §1

Row | Cell Line | relative viability (Bortezomib + Linsitinib; first compound 0.0002 µM) | relative viability (Bortezomib + Linsitinib; first compound 0.000632 µM) | relative viability (Bortezomib + Linsitinib; first compound 0.002 µM) | relative viability (Bortezomib + Linsitinib; first compound 0.006325 µM) | relative viability (Bortezomib + Linsitinib; first compound 0.02 µM) | relative viability ([1]; first compound 0.08 µM) | relative viability ([1]; first compound 0.253 µM) | relative viability ([1]; first compound 0.8 µM) | relative viability ([1]; first compound 2.53 µM) | relative viability ([1]; first compound 8 µM) | relative viability ([2]; first compound 0.08 µM) | relative viability ([2]; first compound 0.253 µM) | relative viability ([2]; first compound 0.8 µM) | relative viability ([2]; first compound 2.53 µM) | relative viability ([2]; first compound 8 µM) | relative viability (Obatoclax + Tozasertib; first compound 0.01 µM) | relative viability (Obatoclax + Tozasertib; first compound 0.03162 µM) | relative viability (Obatoclax + Tozasertib; first compound 0.1 µM) | relative viability (Obatoclax + Tozasertib; first compound 0.3162 µM) | relative viability (Obatoclax + Tozasertib; first compound 1 µM)
1 | NCI-H441 | 0.497 | 0.41 | 0.406 | 0.343 | 0.103 | 0.689 | 0.794 | 0.457 | 0.254 | 0.15 | 0.24 | 0.25 | 0.273 | 0.221 | 0.137 | 0.497 | 0.677 | 0.666 | 0.52 | 0.385
2 | NCI-H460 | 0.718 | 0.772 | 0.91 | 0.0249 | 0.0133 | 0.948 | 0.839 | 0.159 | 0.0358 | 0.0091 | 0.0607 | 0.0584 | 0.0607 | 0.0513 | 0.0228 | 0.419 | 0.504 | 0.424 | 0.443 | 0.188
3 | NCI-H520 | 1.12 | 0.991 | 0.483 | 0.137 | 0.143 | 0.798 | 0.778 | 0.473 | 0.251 | 0.0942 | 0.643 | 0.688 | 0.322 | 0.14 | 0.0969 | 0.42 | 0.434 | 0.492 | 0.402 | 0.295
4 | NCI-H596 | 0.894 | 0.813 | 1.09 | 0.233 | 0.18 | 0.984 | 1.04 | 0.857 | 0.554 | 0.197 | 0.468 | 0.5 | 0.456 | 0.408 | 0.228 | 0.911 | 0.915 | 0.837 | 0.564 | 0.597
5 | NCI-H647 | 1.09 | 1.28 | 1.12 | 0.0274 | 0.0402 | 1.19 | 1.06 | 0.683 | 0.0821 | 0.0474 | 0.2 | 0.174 | 0.168 | 0.0748 | 0.0585 | 0.254 | 0.304 | 0.301 | 0.222 | 0.112
6 | NCI-H661 | 0.62 | 0.552 | 0.46 | 0.311 | 0.181 | – | 1.23 | 1.08 | 0.945 | 0.383 | 0.884 | 0.898 | 0.855 | 0.576 | 0.326 | 0.365 | 0.336 | 0.393 | 0.355 | 0.357
7 | NCI-H838 | 0.995 | 1.01 | 0.962 | 0.142 | 0.145 | 0.89 | 0.936 | 0.742 | 0.434 | 0.0999 | 0.235 | 0.25 | 0.213 | 0.166 | 0.111 | 0.292 | 0.253 | 0.292 | 0.25 | 0.221
8 | NCI-H1355 | 0.85 | 0.777 | 0.615 | 0.837 | 0.124 | 1 | 1.04 | 1.07 | 0.756 | 0.253 | 1.04 | 1.01 | 1.01 | 0.902 | 0.546 | 0.602 | 0.588 | 0.623 | 0.538 | 0.466
